One block for each molecule: values may come before it. Peptide text beside a SMILES is read from it.
Assays:
α-amylase = molecular target: T1, α-amylase (Sus scrofa, UniProt P00690); details: literature value; cited from earlier work
T1 sequence (P00690 16-511): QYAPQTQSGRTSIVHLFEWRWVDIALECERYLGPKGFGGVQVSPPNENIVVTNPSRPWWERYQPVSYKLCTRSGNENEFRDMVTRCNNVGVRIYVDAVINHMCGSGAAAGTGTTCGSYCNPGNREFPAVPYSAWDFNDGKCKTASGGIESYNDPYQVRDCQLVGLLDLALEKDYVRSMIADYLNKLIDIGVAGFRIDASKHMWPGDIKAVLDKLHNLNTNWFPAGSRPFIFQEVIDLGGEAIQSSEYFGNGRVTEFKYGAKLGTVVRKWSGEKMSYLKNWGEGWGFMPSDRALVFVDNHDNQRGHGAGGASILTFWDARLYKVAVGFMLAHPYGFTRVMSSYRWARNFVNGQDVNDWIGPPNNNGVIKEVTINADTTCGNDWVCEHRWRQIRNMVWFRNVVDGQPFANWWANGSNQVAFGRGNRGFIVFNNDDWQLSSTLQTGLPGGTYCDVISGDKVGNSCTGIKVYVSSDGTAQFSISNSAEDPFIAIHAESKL

[1] = test system: pyruvate kinase (PK) in IR-HepG2 cells; assay: Pyruvate kinase activity in IR-HepG2 cells; format: cell-based; details: IR-HepG2, vs model control; GR-5, SA-6, VF-6 at 2 mmol/L, IR-7 at 1 mmol/L
Description: (§1) The IR-HepG2 cellular model was established as described in Section 3.6. […] Cell viability was evaluated in all groups to determine appropriate peptide concentrations and incubation times based on the criteria of non-cytotoxicity and maximal glucose consumption.
(§2) Glucose consumption was measured using a commercial glucose assay kit according to the manufacturer’s protocol. Intracellular glycogen content was quantified with a glycogen detection kit, while hexokinase (HK) and pyruvate kinase (PK) enzyme activities were determined using specific assay kits, following the provided instructions.

IR-HepG2 cells [2] = assay: Glucose consumption in IR-HepG2 cells; format: cell-based; details: 2 mmol/L, IR-HepG2, compared to baseline, positive control
Description: HepG2 cells were maintained in Dulbecco’s Modified Eagle Medium (DMEM) supplemented with 10% fetal bovine serum and 1% penicillin–streptomycin under controlled conditions at 37 °C in a humidified atmosphere containing 5% CO2 for 24 h.
as §1, §2

[3] = test system: hexokinase (HK) in IR-HepG2 cells; assay: Hexokinase activity in IR-HepG2 cells; format: cell-based; details: IR-HepG2, vs model control; GR-5, SA-6, VF-6 at 2 mmol/L, IR-7 at 1 mmol/L
Description: as §1, §2

IR-HepG2 cells [4] = assay: Intracellular glycogen content in IR-HepG2 cells; format: cell-based; details: GR-5, SA-6, VF-6 at 2 mmol/L, IR-7 at 1 mmol/L
Description: as §1, §2

DPP-IV = molecular target: T2, DPP-IV (Homo sapiens, UniProt P27487); assay: DPP-IV inhibitor screening kit (fluorescence); format: biochemical; details: mean ± SD, n = 3
T2 construct: purchased Elabscience Biotechnology Co., Ltd. E-BC-D007
T2 sequence (P27487 whole entry, species assumed): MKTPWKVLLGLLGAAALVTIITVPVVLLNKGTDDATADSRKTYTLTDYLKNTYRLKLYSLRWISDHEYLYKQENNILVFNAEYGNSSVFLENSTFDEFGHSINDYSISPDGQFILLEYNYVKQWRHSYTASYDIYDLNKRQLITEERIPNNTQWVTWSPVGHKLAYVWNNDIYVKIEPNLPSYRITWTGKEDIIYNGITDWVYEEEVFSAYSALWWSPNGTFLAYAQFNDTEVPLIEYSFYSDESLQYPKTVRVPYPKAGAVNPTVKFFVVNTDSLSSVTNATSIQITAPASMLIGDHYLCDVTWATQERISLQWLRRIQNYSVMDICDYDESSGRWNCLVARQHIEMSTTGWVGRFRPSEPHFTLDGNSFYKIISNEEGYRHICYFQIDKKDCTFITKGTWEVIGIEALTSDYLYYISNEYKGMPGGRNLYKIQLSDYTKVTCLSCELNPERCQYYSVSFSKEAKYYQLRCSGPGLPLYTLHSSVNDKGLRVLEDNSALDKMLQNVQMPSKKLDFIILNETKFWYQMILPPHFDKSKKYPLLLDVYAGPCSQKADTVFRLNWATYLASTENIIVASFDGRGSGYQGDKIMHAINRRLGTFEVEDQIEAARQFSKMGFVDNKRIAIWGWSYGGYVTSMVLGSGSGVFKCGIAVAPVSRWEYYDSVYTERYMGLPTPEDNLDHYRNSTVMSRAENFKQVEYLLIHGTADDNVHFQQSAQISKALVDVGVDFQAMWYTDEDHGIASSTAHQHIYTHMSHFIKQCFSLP
Description: The hypoglycemic active peptides were synthesized via solid-phase synthesis by Shanghai science peptide Co., Ltd. (Shanghai, China). The purity and molecular weight of the synthesized peptides were confirmed using HPLC-MS. The α-glucosidase inhibitory activity was assessed a modified version of previously reported methods by adding 100 μL of p-NPG (1 mM) after 50 μL of peptide solution (0.125–2.0 mg/mL), and 50 μL of α-glucosidase (1 u/mL) were incubated at 37 °C for 15 min. Absorbance was measured at 405 nm after the reaction was stopped by adding 100 μL of […] after another 30 min of incubation. Similarly, α-amylase inhibitory activity was determined based on established protocols with minor modifications. Briefly, 100 μL of peptide solution (0.125–2.0 mg/mL) was mixed with 100 μL of α-amylase (1 U/mL) and incubated at 37 °C for 10 min. Then, 200 μL of pretreated soluble starch solution (2%, denatured at 95 °C for 8 min) was added, and the mixture was further incubated at 37 °C for 20 min. The reaction was stopped by adding 200 μL of DNS reagent (1% DNS; 12% sodium potassium tartrate in 0.4 M Na2CO3), followed by boiling at 100 °C for 15 min. After cooling, 200 μL of each reaction mixture was transferred to a 96-well plate, and absorbance was measured at 540 nm. DPP-IV inhibitory activity was evaluated using a DPP-IV inhibitor screening kit (Elabscience) following the manufacturer’s instructions with slight modifications. Peptide solutions were prepared at gradient concentrations (0.125, 0.25, 0.5, 1, 1.5, 2, 4, and 10 mg/mL). In a 96-well plate, 20 μL of enzyme solution and 30 μL of peptide sample were added to each well, mixed briefly, and incubated at 37 °C for 10 min. Then, 170 μL of reaction working solution was added, followed by a second incubation at 37 °C for 30 min. Fluorescence intensity was measured at an excitation wavelength of 360 nm and an emission wavelength of 460 nm. The IC50 values were determined by fitting dose–response curves using nonlinear regression analysis with a variable slope in GraphPad Prism 9. All IC50 results are expressed as mean ± SD based on three independent experiments.

Molecule: GPPMPPPPLP
α-amylase IC50 (α-amylase): 2020 ± 200 µg/mL

Molecule: FPSPPLVA
α-amylase IC50 (α-amylase): 920 ± 270 µg/mL

Molecule: CN(C)C(=N)N=C(N)N [metformin]
increase in PK activity [1]: 21.1%
increase in glucose consumption (IR-HepG2 cells [2]): 105%
increase in HK activity [3]: 54.9%
increase in glycogen content (IR-HepG2 cells [4]): 24.2%

Molecule: CC(C)C[C@H](NC(=O)[C@H](Cc1ccc(O)cc1)NC(=O)[C@H](Cc1ccc(O)cc1)NC(=O)CN)C(=O)N[C@@H](CCCNC(=N)N)C(=O)O [GR-5, Gly-Tyr-Tyr-Leu-Arg] (H-GYYLR-OH; N-terminus and C-terminus assumed)
IC50 (DPP-IV): 6.97 mM

The next lines start with the values.

IC50 (DPP-IV): 1.36 mM
Molecule: CC(C)[C@H](N)C(=O)N[C@@H](C)C(=O)N[C@@H](Cc1ccccc1)C(=O)NCC(=O)N[C@@H](CCCNC(=N)N)C(=O)N[C@@H](Cc1ccccc1)C(=O)O [VF-6, Val-Ala-Phe-Gly-Arg-Phe] (H-VAFGRF-OH; N-terminus and C-terminus assumed)

IC50 (DPP-IV): 11 mM
Molecule: C[C@H](NC(=O)[C@H](CCCNC(=N)N)NC(=O)[C@H](CC(=O)O)NC(=O)[C@H](Cc1ccccc1)NC(=O)[C@H](Cc1ccc(O)cc1)NC(=O)[C@@H](N)CO)C(=O)O [SA-6, Ser-Tyr-Phe-Asp-Arg-Ala] (H-SYFDRA-OH; N-terminus and C-terminus assumed)

IC50 (DPP-IV): 1.04 mM
Molecule: CC[C@H](C)[C@H](N)C(=O)N[C@@H](C)C(=O)N[C@@H](CO)C(=O)N[C@@H](Cc1ccc(O)cc1)C(=O)N[C@@H](Cc1ccccc1)C(=O)N[C@@H](CC(=O)O)C(=O)N[C@@H](CCCNC(=N)N)C(=O)O [IR-7, Ile-Ala-Ser-Tyr-Phe-Asp-Arg] (H-IASYFDR-OH; N-terminus and C-terminus assumed)
